# Data as given in PubChem BioAssay AID1963449 (Molecular Pharmacology Branch, DTP, NCI, 2024).
# Tested on: 596521-263-R-J1-PDC complex spheroid growth
# Assay: Anticancer human tumor 596521-263-R-J1-PDC patient-derived soft tissue sarcoma cell line growth inhibition [Asc]
# Details: for IC50: curve of first compound; for viability, T/C: stronger effect = lower value
# Outline: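 Stromal components (HUVEC and hMSC) are co-assembled with the cancer cells into multicellular spheroids. Drugs are then added singly or paired, at concentrations falling by half-log increments from a clinically achievable maximum, capped at 10 microM without known Cmax.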
# 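Further: spheroids exposed to compounds for 7 days.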
smiles,measurement,setting,value
CCN1CCN(Cc2ccc(Nc3ncc(F)c(-c4cc(F)c5nc(C)n(C(C)C)c5c4)n3)nc2)CC1 + Cc1c(S(C)(=O)=O)c(-c2cc(F)cc(N3CCN(c4ccc(NS(=O)(=O)c5ccc(NC(CCN6CCC(C(=O)OCCCP(=O)(O)O)CC6)CSc6ccccc6)c(S(=O)(=O)C(F)(F)F)c5)cc4)CC3)c2)c(-c2ccc(Cl)cc2)n1C(C)C,IC50,second compound 0.0316 µM,> 1 µM
same,IC50,second compound 0.1 µM,> 1 µM
same,IC50,second compound 0.316 µM,> 1 µM
same,IC50,second compound 1 µM,> 1 µM
same,IC50,second compound 3.16 µM,> 1 µM
same,IC50,second compound 10 µM,> 1 µM
same,"viability, T/C","second compound 0.0316 µM, first compound 0.00316 µM",94.2%
same,"viability, T/C","second compound 0.0316 µM, first compound 0.01 µM",95.2%
same,"viability, T/C","second compound 0.0316 µM, first compound 0.0316 µM",92%
same,"viability, T/C","second compound 0.0316 µM, first compound 0.1 µM",84.3%
same,"viability, T/C","second compound 0.0316 µM, first compound 0.316 µM",91.4%
same,"viability, T/C","second compound 0.0316 µM, first compound 1 µM",97%
same,"viability, T/C","second compound 0.1 µM, first compound 0.00316 µM",93.7%
same,"viability, T/C","second compound 0.1 µM, first compound 0.01 µM",91.5%
same,"viability, T/C","second compound 0.1 µM, first compound 0.0316 µM",94.1%
same,"viability, T/C","second compound 0.1 µM, first compound 0.1 µM",81.1%
same,"viability, T/C","second compound 0.1 µM, first compound 0.316 µM",88.7%
same,"viability, T/C","second compound 0.1 µM, first compound 1 µM",82%
same,"viability, T/C","second compound 0.316 µM, first compound 0.00316 µM",102%
same,"viability, T/C","second compound 0.316 µM, first compound 0.01 µM",79%
same,"viability, T/C","second compound 0.316 µM, first compound 0.0316 µM",77.8%
same,"viability, T/C","second compound 0.316 µM, first compound 0.1 µM",75.7%
same,"viability, T/C","second compound 0.316 µM, first compound 0.316 µM",75.3%
same,"viability, T/C","second compound 0.316 µM, first compound 1 µM",83.8%
same,"viability, T/C","second compound 1 µM, first compound 0.00316 µM",83%
same,"viability, T/C","second compound 1 µM, first compound 0.01 µM",73.9%
same,"viability, T/C","second compound 1 µM, first compound 0.0316 µM",78.5%
same,"viability, T/C","second compound 1 µM, first compound 0.1 µM",70.5%
same,"viability, T/C","second compound 1 µM, first compound 0.316 µM",87.7%
same,"viability, T/C","second compound 1 µM, first compound 1 µM",67.1%
same,"viability, T/C","second compound 3.16 µM, first compound 0.00316 µM",68.1%
same,"viability, T/C","second compound 3.16 µM, first compound 0.01 µM",69.6%
same,"viability, T/C","second compound 3.16 µM, first compound 0.0316 µM",63.3%
same,"viability, T/C","second compound 3.16 µM, first compound 0.1 µM",59.6%
same,"viability, T/C","second compound 3.16 µM, first compound 0.316 µM",66.8%
same,"viability, T/C","second compound 3.16 µM, first compound 1 µM",66.4%
same,"viability, T/C","second compound 10 µM, first compound 0.00316 µM",58.1%
same,"viability, T/C","second compound 10 µM, first compound 0.01 µM",57.1%
same,"viability, T/C","second compound 10 µM, first compound 0.0316 µM",56%
same,"viability, T/C","second compound 10 µM, first compound 0.1 µM",54.8%
same,"viability, T/C","second compound 10 µM, first compound 0.316 µM",57%
same,"viability, T/C","second compound 10 µM, first compound 1 µM",55.1%
C#Cc1c(F)ccc2cc(O)cc(-c3ncc4c(N5CC6CCC(C5)N6)nc(OCC56CCCN5CC(F)C6)nc4c3F)c12 (centres undefined) + CCN1C(C(=O)NC23CCC(C(=O)O)(CC2)CC3)C(c2cccc(Cl)c2F)C2(C(=O)Nc3cc(Cl)ccc32)C12CCCCC2,IC50,second compound 0.00949 µM,> 10 µM
same,IC50,second compound 0.03 µM,> 10 µM
same,IC50,second compound 0.0949 µM,> 10 µM
same,IC50,second compound 0.3 µM,> 10 µM
same,IC50,second compound 0.949 µM,> 10 µM
same,IC50,second compound 3 µM,> 10 µM
same,"viability, T/C","second compound 0.00949 µM, first compound 0.0316 µM",90.9%
same,"viability, T/C","second compound 0.00949 µM, first compound 0.1 µM",88.8%
same,"viability, T/C","second compound 0.00949 µM, first compound 0.316 µM",93.7%
same,"viability, T/C","second compound 0.00949 µM, first compound 1 µM",93.1%
same,"viability, T/C","second compound 0.00949 µM, first compound 3.16 µM",100%
same,"viability, T/C","second compound 0.00949 µM, first compound 10 µM",87.7%
same,"viability, T/C","second compound 0.03 µM, first compound 0.0316 µM",111%
same,"viability, T/C","second compound 0.03 µM, first compound 0.1 µM",101%
same,"viability, T/C","second compound 0.03 µM, first compound 0.316 µM",85.8%
same,"viability, T/C","second compound 0.03 µM, first compound 1 µM",96.2%
same,"viability, T/C","second compound 0.03 µM, first compound 3.16 µM",107%
same,"viability, T/C","second compound 0.03 µM, first compound 10 µM",80%
same,"viability, T/C","second compound 0.0949 µM, first compound 0.0316 µM",99.3%
same,"viability, T/C","second compound 0.0949 µM, first compound 0.1 µM",84.3%
same,"viability, T/C","second compound 0.0949 µM, first compound 0.316 µM",96.9%
same,"viability, T/C","second compound 0.0949 µM, first compound 1 µM",92%
same,"viability, T/C","second compound 0.0949 µM, first compound 3.16 µM",102%
same,"viability, T/C","second compound 0.0949 µM, first compound 10 µM",84.8%
same,"viability, T/C","second compound 0.3 µM, first compound 0.0316 µM",103%
same,"viability, T/C","second compound 0.3 µM, first compound 0.1 µM",98.9%
same,"viability, T/C","second compound 0.3 µM, first compound 0.316 µM",97.8%
same,"viability, T/C","second compound 0.3 µM, first compound 1 µM",100%
same,"viability, T/C","second compound 0.3 µM, first compound 3.16 µM",119%
same,"viability, T/C","second compound 0.3 µM, first compound 10 µM",85.7%
same,"viability, T/C","second compound 0.949 µM, first compound 0.0316 µM",92.4%
same,"viability, T/C","second compound 0.949 µM, first compound 0.1 µM",108%
same,"viability, T/C","second compound 0.949 µM, first compound 0.316 µM",103%
same,"viability, T/C","second compound 0.949 µM, first compound 1 µM",98.7%
same,"viability, T/C","second compound 0.949 µM, first compound 3.16 µM",87%
same,"viability, T/C","second compound 0.949 µM, first compound 10 µM",80.3%
same,"viability, T/C","second compound 3 µM, first compound 0.0316 µM",81.3%
same,"viability, T/C","second compound 3 µM, first compound 0.1 µM",85.7%
same,"viability, T/C","second compound 3 µM, first compound 0.316 µM",85.1%
same,"viability, T/C","second compound 3 µM, first compound 1 µM",88.8%
same,"viability, T/C","second compound 3 µM, first compound 3.16 µM",88.2%
same,"viability, T/C","second compound 3 µM, first compound 10 µM",78.9%
